Test results from the NIST ThermoML archive (doi:10.1021/je060406c).
Where “and” joins values, the source holds several entries; their conditions need not be identical. Identical values can stand only once.

Conditions: Liquid, Transpiration method

O=CCc1ccccc1 [α-tolualdehyde]
Conditions	vapor or sublimation pressure [kPa]
293.2 K	0.01683
298.1 K	0.02456
303.1 K	0.03724
308.2 K	0.05436
313.7 K	0.0801
317.9 K	0.111
323 K	0.15
328.1 K	0.2162
332.1 K	0.2883
338 K	0.4029
343 K	0.5498

O=Cc1ccccc1 [benzaldehyde]
Conditions	vapor or sublimation pressure [kPa]
278.4 K	0.04083
282.3 K	0.05524
286.3 K	0.07697
290.3 K	0.09697
294.3 K	0.1372
298.4 K	0.1775
303.2 K	0.246
308.2 K	0.3195
313.2 K	0.4306

O=Cc1ccco1 [2-furaldehyde]
Conditions	vapor or sublimation pressure [kPa]
276.7 K	0.0525
281.5 K	0.0746
285.4 K	0.1011
288.4 K	0.1293
290.6 K	0.1516
293.2 K	0.182
295.5 K	0.2088
298.2 K	0.2589
300.5 K	0.3002
303.1 K	0.3652
308.2 K	0.4911
312.2 K	0.6213
315.1 K	0.7411
317.9 K	0.9108
320.1 K	1.04
323.4 K	1.256

OCCc1ccccc1 [2-phenylethanol]
Conditions	vapor or sublimation pressure
287.8 K	0.00251 kPa
289.7 K	0.00285 kPa
292.7 K	0.00399 kPa
295.1 K	0.00482 kPa
297.5 K	0.00626 kPa
302.5 K	0.00976 kPa
308.2 K	0.0153 kPa
312.5 K	0.02276 kPa
316.6 K	0.03091 kPa
317.6 K	0.03285 kPa
322.7 K	0.05022 kPa and 0.05028 kPa
322.8 K	0.05055 kPa
327.8 K	0.06913 kPa
332.8 K	0.09839 kPa
337.9 K	0.1395 kPa
342.9 K	0.2097 kPa
348.1 K	0.2794 kPa
353.2 K	0.3777 kPa
358.3 K	0.5243 kPa
363.3 K	0.6922 kPa
